We go through two compounds from patent US8993626B2, “Methods of treatment using sterculic acid” (The United States of America, as represented by the …, priority 2010, dated 2015).

Data set [1] concerns ARPE-19 cells. Briefly: qRT-PCR of inflammatory cytokines and ER stress markers, 7KCh-mediated inflammation. Type of data set: cell-based. As to conditions: for effect on 7KCh-mediated mRNA induction (inflammatory response): 1 μM fatty acid + 8 μM 7KCh, 24 hr, FIG. 13. The protocol: FIGS. 13A-13D depict mRNA expressions of (A) VEGF, (B) IL-6, (C) GRP78, and (D) CHOP in response to 8 μM 7KCh with or without 1 μM long-chain fatty acids. Error bars indicate the standard deviations. *p<0.05 comparing to 7KCh, n=3. Two-tailed Student's t-test.
FIGS. 14A-14D depict mRNA expressions of (A) VEGF, (B) IL-1b, (C) IL-6, and (D) IL-8 in response to 8 μM 7KCh, 1 μM sterculic acid, 1 μM stearic acid, or the combinations of 7KCh with either sterculic acid or stearic acid. Error bars indicate the standard deviations. *p<0.05 comparing to 7KCh, n=4. Two-tailed Student's t-test.
FIGS. 15A-15D depict mRNA expressions of (A) TNF-α, (B) TGF-β1, (C) GRP78, and (D) CHOP in response to 8 μM 7KCh, 1 μM sterculic acid, 1 μM stearic acid, or the combinations of 7KCh with either sterculic acid or stearic acid. Error bars indicate the standard deviations. *p<0.05 comparing to 7KCh, n=3-4. Two-tailed Student's t-test.
(§1) ARPE-19 cells were seeded in 24-well plates with 1×10^5 cells per well and allowed to recover for 16-24 hr. Once confluency reached approximately 90%, the effect of the fatty acids against 7KCh-mediated cell death was examined 24 hr after incubation in serum-free medium with 12 μM 7KCh. Fatty acids were tested at 0.1, 0.5, 1, 5 and 10 μM concentrations. The effects of the fatty acids against 7KCh-mediated inflammation and ER stress were examined by incubating cells in 1 μM fatty acids with either 8 μM 7KCh (24 hr for quantitative real-time PCR (qRT-PCR), 24 and 48 hr for immunoblot), or 6 μM 7KCh for 48 hr (for ELISA). Three individual experiments were performed for each treatment with quadruplicate measurements performed for each experiment in 24-well plates.
(§2) The RNA was extracted using RNeasy Mini Kit (Qiagen, Valencia, Calif.). The reverse transcription was performed with reagents and kits from Invitrogen. Quantification of mRNA expression was performed using the Taqman gene expression assays and the following primers (VEGFa, Hs00173626_m1; IL-1β, Hs01555413_m1; IL-6, Hs00174131_m1; IL-8, Hs00174103_m1; IκBα, Hs00153283_m1; GRP78, Hs99999174_m1; CHOP, Hs01090850_m1; NOX2, Hs00166163_m1; NOX4, Hs01558199_m1; SCD, Hs00748952 s1; TNF-α, Hs00174128_m1; TGF-β1, Hs00998133_m1; GAPD, 4352934e). GAPD expression was used as an endogenous standard. All qRT-PCR experiments were measured in triplicates in an ABI 7500 Real-Time PCR Instrument (Applied Biosystems, Foster City, Calif.). The results of each treatment were normalized and presented in percentage relative to the vehicle-only control.

For data set [2], the system named is ARPE-19 cells. Briefly: Immunoblots of CHOP and GRP78. Format: cell-based. The conditions noted are these: 1 μM + 8 μM 7KCh, 24 hr. The protocol:
(§3) FIGS. 16A-16E depict the secreted protein levels of (A) VEGF, (B) IL-6, and (C) IL-8 were measure by ELISA 48 hr after treatment with 6 μM 7KCh, 1 μM sterculic acid, 1 μM stearic acid, or the combinations of 7KCh with either sterculic acid or stearic acid. Error bars indicate the standard deviations. *p<0.05 comparing to 7KCh, n=3. Two-tailed Student's t-test. The expressions of GRP78 and CHOP were shown by immunoblots (D) 24 hr or (E) 48 hr after treatment with 8 μM 7KCh, 1 μM sterculic acid, 1 μM stearic acid, or the combinations of 7KCh with either sterculic acid or stearic acid.
as §1
Lysis of ARPE-19 cells was performed using MPER buffer solution (Thermo Fisher Scientific) containing Complete Protease Inhibitor Cocktail (Roche Diagnostics). A total of 10 μg protein samples of the cell lysate were separated by SDS-PAGE on 10% Bis-Tris gels (Invitrogen). The gels were blotted on to nitrocellulose membranes (Invitrogen). The proteins were probed with primary antibodies for CHOP (1:1000 dilution), GRP78 (1:1000), or GAPDH (1:2000) at 4° C. overnight. The membranes were then further incubated with anti-rabbit IgG, HRP-linked antibodies (1:2000 dilution) at room temperature for 1 hr. […]

Data set [3] deals with ARPE-19 cells. As to the kind of experiment: Fatty acids against 7KCh-mediated cell death (CCK8). Format: cell-based. The protocol:
FIGS. 12A-12C depict ARPE-19 cell viability in response to 12 μM 7KCh with or without 0.1-5 μM (A) sterculic acid and (B) stearic acid after 24 hr treatments. Error bars indicate the standard deviations. n=3-5. Two-tailed Student's t-test. (C) Representative images of changes in cell morphology in response to 12 μM 7KCh with or without 1 μM sterculic acid and stearic acid after 24 hr treatments.
as §1
The cell viability was determined by the dehydrogenase activity of the ARPE-19 cells using Cell Counting Kit-8 (CCK8, Dojindo, Gaithersburg, Md.) according to manufacturer's protocol.
The lowest effective concentrations of fatty acids that offset the 7KCh-mediated cell death were determined. […] Table 3 lists the lowest concentrations of these fatty acids required to maintain full cell viability against 12 μM 7KCh treatment. All unsaturated fatty acids protected against 7KCh-induced cell death. […] DHA, α-linolenic, and linoleic acid prevented 7KCh-mediated cell death at 5 μM but the rest of unsaturated fatty acids and dihydrosterculic acid required 10 μM to be protective.

The subject of data set [4] is ARPE-19 cells. As to the kind of experiment: ELISA of secreted VEGF, IL-6, IL-8 in conditioned medium. Format: cell-based. As to conditions: 1 μM + 6 μM 7KCh, 48 hr. The protocol:
as §3, §1
The levels of secreted VEGF, IL-6, IL-8, and TNF-α in conditioned medium of ARPE-19 cell cultures were measured 48 hr after treatments of 6 μM 7KCh and 1 μM fatty acids using the Quantkine ELISA kits from R&D systems (Minneapolis, Minn.). The protein levels were measured in triplicates. The ELISA results were quantified using an Envision multilable plate reader (PerkinElmer, Covina, Calif.) and presented in percentage relative to the vehicle-only control.
On the technique in general: In an ELISA, binding on a coated surface is turned into a signal by an enzyme label.

Data set [5] concerns ARPE-19 cells. Briefly: qRT-PCR of cytokines in TNF-α treated cells. Format: cell-based. The conditions noted are these: 1 μM fatty acid + 2 ng/ml TNF-α, 24 hr. Here is the method: FIGS. 17A-17D depict the mRNA expressions of (A) IL-1β, (B) IL-8, (C) IκBα, and (D) GRP78 in response to 2 ng/ml TNF-α, 1 μM sterculic acid, 1 μM stearic acid, or the combinations of TNF-α with either sterculic acid or stearic acid. n=3. Error bars indicate the standard deviations.
Tumor necrosis factor-alpha (TNF-α, Roche Diagnostics, Indianapolis, Ind.) was diluted in PBS to make 10 μg/ml stock solution and stored at −20° C. In order to test the anti-inflammation effect of fatty acids against TNF-α, ARPE-19 cells were treated with 2 ng/ml of TNF-α for 24 hr in serum-free medium with or without 1 μM fatty acids. The mRNA expressions of cytokines were then examined using qRT-PCR. Each treatment was performed three times with quadruplicate measurements in each experiment, in 24-well plates.
as §2

Data set [6] concerns ARPE19 cells. Briefly: Cell Counting Kit-8 viability assay, 15 μM 7KCh-induced cytotoxicity. As to conditions: 1 μM fatty acid + 15 μM 7KCh. A general note: Tetrazolium dyes change colour on reduction, which living cells bring about.
Protocol: 4×10^4 cells were seeded onto wells of a 96 well plate. […] Cell viability was determined as celluar dehydrogenase activity and expressed as the percentage of compound treated cells relative to that of untreated controls. error bar: standard deviation, n=4.
The kit allows sensitive colorimetric assays for the determination of the number of viable cells in cell proliferation and cytotoxicity assays. The amount of the formazan dye generated by the activity of dehydrogenases in cells is directly proportional to the number of living cells.
1) Cells were cultivated in a 96 well cell plate (Costar#3599, Corning Incorp, Corning, N.Y.).
2) The cell suspension (40,000 cells/100 μL) were added to 100 μL culture media per well and stood for 15 min at room temperature and cultured at 37° C. in a humidified 5% CO2 atmosphere.
3) Approximately 19 hr after seeding, when the cells were fully confluent, the cells were treated with either DMSO or 1 μM fatty acid in 200 μL of serum free media and subsequently added with 15 μM 7KCh in HPBCD. Then, the plate was swirled for mixing. The cells were also treated with DMSO and HPBCD, which served as vehicle control. The final DMSO and HPBCD concentrations in the media were in the range of 0.1% and 0.0675%, respectively.
Cell viability was expressed as the percentage of compound treated cells relative to that of untreated controls. Prior to measure cell viability, the cells were imaged live by Nikon TE 2000-U inverted fluorescent microscope.
Data set [7] deals with ARPE19 cells. As to the kind of experiment: CellTiter-Glo luminescent cell viability assay, 15 μM 7KCh-induced cytotoxicity. Format: cell-based, human. As to conditions: 1 μM fatty acid + 15 μM 7KCh, 24 hr, CellTiter-Glo. The protocol:
Error bar: standard deviation, n=4.
CellTiter-Glo® Luminescent Cell Viability Assay is a homogeneous method of determining the number of viable cells in culture based on quantitation of the ATP (luminescent signal) present, an indicator of metabolically active cells.
The contents in a plate were mixed for 2 min on an orbital shaker to induce cell lysis.
5) The plate was allowed to incubate at room temperature for 10 min to stabilize luminescent signal.
In general terms: Cellular ATP, detected with luciferase, serves as a proxy for viable cell number.

In data set [8] the test system is ARPE19 cells. As to the kind of experiment: Microelectronic cell sensor assay (RT-CES), 7KCh-induced cytotoxicity. As to conditions: 1 μM fatty acid + 15 μM 7KCh, serum free media.
Protocol: 4×10^4 cells were seeded onto wells of 16× microtiter plates. […] Cell viability was determined as a cell index (CI) calculated from the impedance of each well automatically by the RT-CES system once per hr until the end of the experiment. The data was normalized at the point immediately prior to compound treatment.
RT-CES® System is a cell-based assay system that monitors cellular events by measuring the electronic impedance of sensor electrodes integrated on the bottom of microtiter E-Plates. The presence of the cells will lead to an increase in the electrode impedance. The more cells attached to the sensor, the higher the impedance that could be monitored with RT-CES.
1) Cells were cultivated in the ACEA's 16X E-plate device containing microelectrodes at the bottom of each well to measure contact area and electrical properties of adherent cells. […]
4) Cell growth was monitored periodically (every 1 hr) for indicated durations via calculation of a “cell index” (reflect to the surface area covered by the cells) in each well. […]
6) The sensor devices were put into the incubator again and the cells were continuously monitored cellular status changes.
7) Cell viability was determined as a cell index (CI) calculated from the impedance of each well automatically by the RT-CES system once per hr until the end of the experiment. […]
Data set [9] deals with ARPE19 cells. As to the kind of experiment: 7-ketocholesterol-mediated cytotoxicity, 24-well CCK-8 viability and images. The conditions noted are these: 24 hr.
Another data set relates to D407 cells. Briefly: 7-ketocholesterol-mediated cytotoxicity, 24-well CCK-8 viability. As to conditions: 5 μM co-treatment with 11 μM 7KCh, 24 hr.
The test system of data set [10] is ARPE19 cells. Briefly: Phase-contrast images of cells after co-treatment with 15 μM 7KCh. Format: cell-based, human. The conditions noted are these: 1 μM fatty acid + 15 μM 7KCh, 24 hr. An excerpt:
FIG. 8 depicts phase-contrast images of ARPE19 cells at 24 hr after sterculic acid co-treatment with 7KCh.

Each structure is given as a SMILES string. “Also recorded” adds a separate entry of the source.

Turning to `CCCCCCCCCCCCCCCCCC(=O)O` [stearic acid], the “antagonistic effect to 7KCh-mediated mRNA induction” value in the data set on ARPE-19 cells [1] (1 μM + 8 μM 7KCh, FIGS. 14, 15) is “did not show any antagonistic effect”. Besides, the “effect on 7KCh-mediated mRNA induction (inflammatory response)” value in the data set on ARPE-19 cells [1] is reported as “either ineffective or enhanced”. Also, the “effect of fatty acid alone on the mRNA expression of the cytokines” value in the data set with ARPE-19 cells [1] (1 μM fatty acid alone, no 7KCh, FIGS. 14, 15) is on record as “no effect”. In the data set on ARPE-19 cells [1] (8 μM 7KCh alone or with 1 μM fatty acid, FIG. 14A), the “induction of VEGF mRNA” value turned out to be 8.8 fold. In addition, the “induction of IL-6 mRNA” value in the data set on ARPE-19 cells [1] (8 μM 7KCh alone or with 1 μM fatty acid, FIG. 14C) was 29 fold. Besides, in the data set with ARPE-19 cells [2], the “effect on 7KCh-induced CHOP and GRP78 protein expression” value was “no effect”. Also, the “morphological effects on the cells (images)” value with ARPE-19 cells [3] (1 μM + 12 μM 7KCh, 24 hr, FIG. 12C) is listed as “no effect”. For the same compound, the “protective effect against 7KCh-mediated cell death” value with ARPE-19 cells [3] (12 μM 7KCh, 24 hr, 0.1-10 μM fatty acid) was “did not demonstrate any protective effect”. The “effect on secreted VEGF, IL-6, IL-8 protein levels” value with ARPE-19 cells [4] was “no measurable effect”. The “antagonist effect to the cytokine inductions by TNF-α” value with ARPE-19 cells [5] is on record as “seemed to enhance”.

On to `CCCCCCCC/C=C\CCCCCCCC(=O)O` [oleic acid], for which the “effect on 7KCh-mediated mRNA induction (inflammatory response)” value with ARPE-19 cells [1] is “either ineffective or enhanced”. Further, the “protective effect against cytotoxicity by 7KCh (summary of the viability assays)” value with ARPE19 cells [6] is reported as “slight protective effect”. Moreover, the “increase of cell viability compared to 7KCh alone treatment” value in the data set on ARPE19 cells [6] (24 hr, CCK-8) was 10%; in the data set on ARPE19 cells [7], 10%. In the data set with ARPE19 cells [8], the “protection from 7KCh induced cytotoxicity (cell index)” value is listed as “slight protective effect”. Also, the “protection of cell confluency and morphology (images)” value with ARPE19 cells [9] (0.5 μM co-treatment with 12 μM 7KCh) was “no effect”; in the data set on ARPE19 cells [9] (1 μM co-treatment with 12 μM 7KCh), “slight effect; also recorded: do not have such protection effect”. Moreover, the entries for the “protection effect at 5 μM” value in the data set on ARPE19 cells [9] (5 μM co-treatment with 12 μM 7KCh) and in the data set on D407 cells were “slight effect; also recorded: slight protection” and “slight effect; also recorded: not as significant comparing to sterculic acid”, respectively. Moreover, the “cell morphological changes compared to 7KCh alone” value in the data set on ARPE19 cells [10] was “more cells compared to 7KCh alone”. The “CONC. (μM): lowest concentration required to maintain full cell viability against 7KCh” value in the data set on ARPE-19 cells [3] (12 μM 7KCh for 24 hr, tested 0.1, 0.5, 1, 5 and 10 μM) came out at 10 µM.
